Experimental data from PMC6934184, “Selective DNA-PKcs inhibition extends the therapeutic index of localized radiotherapy and chemotherapy” (The Journal of Clinical Investigation, 2019).

Molecular target: T1, PRKACG (PRKAC gamma) (Homo sapiens, UniProt P22612)
T1 construct: purchased Thermo Fisher Scientific (Life Technologies) SelectScreen
Test: SelectScreen LanthaScreen
Format: binding
Details: read-out: % displacement
Outline: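 NU5455 was profiled across the SelectScreen Broad panel of kinase activity and binding assays. Z'LYTE reactions such as CSF1R ran at apparent Km ATP, while the Adapta CAMK1 assay used ATP listed as 10. Values are given as percent.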

T1 sequence (P22612 whole entry): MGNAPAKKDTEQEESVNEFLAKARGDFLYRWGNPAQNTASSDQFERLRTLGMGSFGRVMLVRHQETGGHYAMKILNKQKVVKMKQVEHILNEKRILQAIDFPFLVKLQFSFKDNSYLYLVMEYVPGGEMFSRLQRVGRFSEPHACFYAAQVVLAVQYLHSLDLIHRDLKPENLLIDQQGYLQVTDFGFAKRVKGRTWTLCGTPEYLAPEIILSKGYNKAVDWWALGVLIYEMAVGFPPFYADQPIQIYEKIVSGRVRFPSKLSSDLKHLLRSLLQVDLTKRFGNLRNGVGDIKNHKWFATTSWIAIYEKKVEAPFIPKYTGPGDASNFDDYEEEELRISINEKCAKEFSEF

CN(C(=O)CN1CCOCC1)c1ccc2sc3c(-c4cccc5c(=O)cc(N6CC7CCC(C6)O7)oc45)cccc3c2c1 [NU5455]
inhibition at 1 µM: -0.2%
